Literature values, collected in paper PMC9516332 (Frontiers in Oncology, 2022).

What was measured:
[1] = molecular target: T1, panel of 255 wild-type kinases (Homo sapiens, UniProt O15146); settings: MUSK; 1 µmol/L single concentration; ref DOI: 10.1371/journal.pone.0092146; cited from earlier work
T1 sequence (O15146 24-869): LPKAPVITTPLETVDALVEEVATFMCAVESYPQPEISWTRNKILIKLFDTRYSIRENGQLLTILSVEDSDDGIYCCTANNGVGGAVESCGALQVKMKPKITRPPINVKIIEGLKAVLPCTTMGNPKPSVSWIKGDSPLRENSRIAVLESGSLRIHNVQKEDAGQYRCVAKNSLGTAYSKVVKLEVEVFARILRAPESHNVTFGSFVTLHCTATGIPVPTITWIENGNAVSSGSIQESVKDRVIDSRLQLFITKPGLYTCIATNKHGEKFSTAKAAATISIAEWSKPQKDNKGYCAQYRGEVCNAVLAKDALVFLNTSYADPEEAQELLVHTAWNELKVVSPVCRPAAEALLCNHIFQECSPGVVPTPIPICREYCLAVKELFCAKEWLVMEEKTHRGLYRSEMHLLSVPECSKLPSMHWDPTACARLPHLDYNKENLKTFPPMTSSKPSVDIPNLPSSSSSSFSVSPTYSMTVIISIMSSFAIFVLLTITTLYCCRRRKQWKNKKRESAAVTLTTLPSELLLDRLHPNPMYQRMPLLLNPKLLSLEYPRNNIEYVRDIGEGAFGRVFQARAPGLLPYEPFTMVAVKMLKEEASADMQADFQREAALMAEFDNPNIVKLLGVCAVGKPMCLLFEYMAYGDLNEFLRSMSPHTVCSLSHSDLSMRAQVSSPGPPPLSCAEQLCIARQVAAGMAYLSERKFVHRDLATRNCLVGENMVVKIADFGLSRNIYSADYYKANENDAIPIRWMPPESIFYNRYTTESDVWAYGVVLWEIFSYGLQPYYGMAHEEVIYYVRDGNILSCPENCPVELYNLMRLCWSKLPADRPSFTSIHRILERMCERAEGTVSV

[2] = molecular target: T2, panel of 255 wild-type kinases (Homo sapiens, UniProt Q02156); settings: kinase PKCε; 1 µmol/L single concentration; ref DOI: 10.1371/journal.pone.0092146; cited from earlier work
T2 sequence (Q02156 1-737): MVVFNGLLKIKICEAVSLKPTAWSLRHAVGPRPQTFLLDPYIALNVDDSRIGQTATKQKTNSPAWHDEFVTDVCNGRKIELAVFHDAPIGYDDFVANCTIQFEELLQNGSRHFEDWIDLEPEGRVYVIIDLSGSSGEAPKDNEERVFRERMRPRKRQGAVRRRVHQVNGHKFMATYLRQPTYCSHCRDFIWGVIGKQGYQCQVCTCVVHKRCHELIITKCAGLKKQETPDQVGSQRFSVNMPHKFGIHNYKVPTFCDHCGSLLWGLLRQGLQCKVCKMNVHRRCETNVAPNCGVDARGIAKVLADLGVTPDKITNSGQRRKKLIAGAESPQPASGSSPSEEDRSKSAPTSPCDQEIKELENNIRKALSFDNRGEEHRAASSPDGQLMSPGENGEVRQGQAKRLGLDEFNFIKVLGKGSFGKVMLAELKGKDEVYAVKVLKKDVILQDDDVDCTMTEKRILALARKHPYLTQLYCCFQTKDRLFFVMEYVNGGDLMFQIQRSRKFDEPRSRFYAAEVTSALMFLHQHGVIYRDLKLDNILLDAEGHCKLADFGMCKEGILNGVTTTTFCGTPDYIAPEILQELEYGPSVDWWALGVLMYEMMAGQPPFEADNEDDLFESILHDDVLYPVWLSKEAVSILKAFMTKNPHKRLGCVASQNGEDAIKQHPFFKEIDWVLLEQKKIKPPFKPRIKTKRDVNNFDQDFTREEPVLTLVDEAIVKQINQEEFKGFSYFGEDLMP

[3] = molecular target: panel of 255 wild-type kinases (Homo sapiens, UniProt O75582); settings: MSK1; 1 µmol/L single concentration; ref DOI: 10.1371/journal.pone.0092146; cited from earlier work
[4] = molecular target: panel of 255 wild-type kinases (Homo sapiens, UniProt Q9UBS0); settings: p70S6Kβ; 1 µmol/L single concentration; ref DOI: 10.1371/journal.pone.0092146; cited from earlier work
[5] = molecular target: panel of 255 wild-type kinases (Homo sapiens, UniProt Q9BYP7); settings: kinase WNK3; 1 µmol/L single concentration; ref DOI: 10.1371/journal.pone.0092146; cited from earlier work
[6] = molecular target: panel of 255 wild-type kinases (Homo sapiens, UniProt P06239); settings: kinase LCK; 1 µmol/L single concentration; ref DOI: 10.1371/journal.pone.0092146; cited from earlier work
[7] = molecular target: panel of 255 wild-type kinases (Homo sapiens, UniProt O96013); settings: PAK4; 1 µmol/L single concentration; ref DOI: 10.1371/journal.pone.0092146; cited from earlier work
[8] = molecular target: panel of 255 wild-type kinases (Homo sapiens, UniProt P07333); settings: kinase FMS; 1 µmol/L single concentration; ref DOI: 10.1371/journal.pone.0092146; cited from earlier work
[9] = molecular target: panel of 255 wild-type kinases (Homo sapiens, UniProt Q9BUB5); settings: MNK1; 1 µmol/L single concentration; ref DOI: 10.1371/journal.pone.0092146; cited from earlier work
[10] = molecular target: T3, panel of 255 wild-type kinases (Homo sapiens, UniProt O15264); settings: p38δ; 1 µmol/L single concentration; ref DOI: 10.1371/journal.pone.0092146; cited from earlier work
T3 sequence (O15264 1-365): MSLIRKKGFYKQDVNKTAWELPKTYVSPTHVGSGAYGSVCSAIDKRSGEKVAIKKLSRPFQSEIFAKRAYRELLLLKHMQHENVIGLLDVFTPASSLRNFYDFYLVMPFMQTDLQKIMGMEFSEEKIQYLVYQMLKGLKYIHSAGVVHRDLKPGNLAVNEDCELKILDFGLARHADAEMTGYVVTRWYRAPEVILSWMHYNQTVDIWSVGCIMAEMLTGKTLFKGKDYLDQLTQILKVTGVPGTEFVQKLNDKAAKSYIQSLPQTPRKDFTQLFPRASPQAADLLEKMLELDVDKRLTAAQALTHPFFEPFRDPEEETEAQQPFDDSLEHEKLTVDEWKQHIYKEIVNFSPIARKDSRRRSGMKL

Compound	%-inhibition, MUSK [1] [%]	%-inhibition at 1 µmol/L, PKCε [2] [%]	%-inhibition, MSK1 [3] [%]	%-inhibition, p70S6Kβ [4] [%]	%-inhibition at 1 µmol/L, WNK3 [5] [%]	%-inhibition at 1 µmol/L, LCK [6] [%]	%-inhibition, PAK4 [7] [%]	%-inhibition at 1 µmol/L, FMS [8] [%]	%-inhibition, MNK1 [9] [%]	%-inhibition, p38δ [10] [%]
CC(=O)Nc1cccc(-n2c(=O)n(C3CC3)c(=O)c3c(Nc4ccc(I)cc4F)n(C)c(=O)c(C)c32)c1 [trametinib]	-0.929	6	-0.531	-1	1	-7	-0.675	-4	-3	-2.7
CCCS(=O)(=O)Nc1ccc(F)c(C(=O)c2c[nH]c3ncc(-c4ccc(Cl)cc4)cc23)c1F [vemurafenib]	-0.285	-8	0.256	0.235	53	81	-7	6	23	8
